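Assay format: 96-well plates, 48-hour exposure. At the GI50, growth is halved.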 The source made the active and inactive calls. Rule as the data show it: active = GI50 up to about 1.1 µM and inactive = higher.
Experiments:
Assay in all cases: NCI-60 cell line screen, 48 h
TK-10 = system: TK-10
CAKI-1 = system: CAKI-1
Hs-578T = system: Hs-578T
UO-31 = system: UO-31
MDA-MB-435 = system: MDA-MB-435
HL-60 = system: HL-60
SF-268 = system: SF-268
UACC-257 = system: UACC-257
PC-3 = system: PC-3
SN12C = system: SN12C
OVCAR-4 = system: OVCAR-4
CCRF-CEM = system: CCRF-CEM
NCI-H460 = system: NCI-H460
SR = system: SR
SK-OV-3 = system: SK-OV-3
T47D = system: T47D
SK-MEL-28 = system: SK-MEL-28
HCT-116 = system: HCT-116
HCT-15 = system: HCT-15

## N=C(N)N/N=C/c1c(-c2ccc([N+](=O)[O-])cc2)nc2sccn12
TK-10
  GI50: 1.82 µM (inactive)
CAKI-1
  GI50: 2.43 µM (inactive)
Hs-578T
  GI50: 1.89 µM (inactive)
UO-31
  GI50: 2.34 µM (inactive)
MDA-MB-435
  GI50: 1.5 µM (inactive)
HL-60
  GI50: 2.38 µM (inactive)
SF-268
  GI50: 1.85 µM (inactive)
UACC-257
  GI50: 1.93 µM (inactive)
PC-3
  GI50: 1.59 µM (inactive)
SN12C
  GI50: 1.77 µM (inactive)
OVCAR-4
  GI50: 1.46 µM (inactive)
CCRF-CEM
  GI50: 0.673 µM (active)
NCI-H460
  GI50: 2 µM (inactive)
SR
  GI50: 1.73 µM (inactive)
SK-OV-3
  GI50: 1.64 µM (inactive)
T47D
  GI50: 1.74 µM (inactive)
SK-MEL-28
  GI50: 1.94 µM (inactive)
HCT-116
  GI50: 1.63 µM (inactive)
HCT-15
  GI50: 10.2 µM

## C=C(CCOC)CCC1CCCCC(=C)[C@H]1O (stereo not given in full)
TK-10
  GI50: > 100 µM (inactive)
CAKI-1
  GI50: > 100 µM (inactive)
Hs-578T
  GI50: > 100 µM (inactive)
UO-31
  GI50: > 100 µM (inactive)
MDA-MB-435
  GI50: > 100 µM (inactive)
HL-60
  GI50: > 100 µM (inactive)
SF-268
  GI50: > 100 µM (inactive)
UACC-257
  GI50: > 100 µM (inactive)
PC-3
  GI50: > 100 µM (inactive)
SN12C
  GI50: > 100 µM (inactive)
OVCAR-4
  GI50: > 100 µM (inactive)
CCRF-CEM
  GI50: > 100 µM (inactive)
NCI-H460
  GI50: > 100 µM (inactive)
SR
  GI50: > 100 µM (inactive)
SK-OV-3
  GI50: > 100 µM (inactive)
T47D
  GI50: > 100 µM (inactive)
SK-MEL-28
  GI50: > 100 µM (inactive)
HCT-116
  GI50: > 100 µM (inactive)
HCT-15
  GI50: > 100 µM

## CC1=C(O)C(=O)C2=C(C1=O)[C@@H]([C@@H](C)C/C=C/C(C)(C)O)CC[C@@H]2C
CAKI-1
  GI50: 37.9 µM (inactive)
Hs-578T
  GI50: 48.6 µM (inactive)
UO-31
  GI50: 62.2 µM (inactive)
MDA-MB-435
  GI50: 43.2 µM (inactive)
HL-60
  GI50: 33.4 µM (inactive)
SF-268
  GI50: 30.7 µM (inactive)
UACC-257
  GI50: 61.8 µM (inactive)
PC-3
  GI50: 51.1 µM (inactive)
SN12C
  GI50: 87.1 µM (inactive)
CCRF-CEM
  GI50: 28.8 µM (inactive)
NCI-H460
  GI50: 55.5 µM (inactive)
SR
  GI50: 35.3 µM (inactive)
SK-OV-3
  GI50: > 100 µM (inactive)
T47D
  GI50: 27.2 µM (inactive)
HCT-116
  GI50: 38.1 µM (inactive)
HCT-15
  GI50: 31 µM

## O=C(Cl)C1=C(c2ccccc2)C1c1ccccc1 (stereo not given)
TK-10
  GI50: > 100 µM (inactive)
CAKI-1
  GI50: > 100 µM (inactive)
Hs-578T
  GI50: > 100 µM (inactive)
MDA-MB-435
  GI50: > 100 µM (inactive)
HL-60
  GI50: > 100 µM (inactive)
SF-268
  GI50: > 100 µM (inactive)
UACC-257
  GI50: > 100 µM (inactive)
PC-3
  GI50: > 100 µM (inactive)
SN12C
  GI50: > 100 µM (inactive)
OVCAR-4
  GI50: > 100 µM (inactive)
CCRF-CEM
  GI50: > 100 µM (inactive)
NCI-H460
  GI50: > 100 µM (inactive)
SR
  GI50: > 100 µM (inactive)
SK-OV-3
  GI50: > 100 µM (inactive)
T47D
  GI50: > 100 µM (inactive)
SK-MEL-28
  GI50: > 100 µM (inactive)
HCT-116
  GI50: > 100 µM (inactive)
HCT-15
  GI50: > 100 µM

## COc1cc(C2c3cc4c(cc3OC(O)C2C)OCO4)cc(OC)c1O (stereo not given)
TK-10
  GI50: 6.95 µM (inactive)
CAKI-1
  GI50: 8.79 µM (inactive)
Hs-578T
  GI50: 8.02 µM (inactive)
UO-31
  GI50: 21.3 µM (inactive)
MDA-MB-435
  GI50: 1.95 µM (inactive)
HL-60
  GI50: 2.92 µM (inactive)
SF-268
  GI50: 15.8 µM (inactive)
UACC-257
  GI50: 48.5 µM (inactive)
PC-3
  GI50: 8.49 µM (inactive)
SN12C
  GI50: 11.8 µM (inactive)
OVCAR-4
  GI50: 35.1 µM (inactive)
CCRF-CEM
  GI50: 5.19 µM (inactive)
NCI-H460
  GI50: 4.85 µM (inactive)
SR
  GI50: 2.9 µM (inactive)
SK-OV-3
  GI50: 6.59 µM (inactive)
T47D
  GI50: 7.64 µM (inactive)
SK-MEL-28
  GI50: 28.7 µM (inactive)
HCT-116
  GI50: 3.95 µM (inactive)
HCT-15
  GI50: 5.43 µM

## CN(C)c1ccc(C(=NN)c2ccc(N(C)C)cc2)cc1
TK-10
  GI50: 0.557 µM (active)
CAKI-1
  GI50: 0.276 µM (active)
Hs-578T
  GI50: 2.33 µM (inactive)
UO-31
  GI50: 6.49 µM (inactive)
MDA-MB-435
  GI50: 0.0416 µM (active)
HL-60
  GI50: 0.322 µM (active)
SF-268
  GI50: 8.91 µM (inactive)
UACC-257
  GI50: 0.203 µM (active)
PC-3
  GI50: 0.755 µM (active)
SN12C
  GI50: 2.56 µM (inactive)
OVCAR-4
  GI50: 9.62 µM (inactive)
CCRF-CEM
  GI50: 0.394 µM (active)
NCI-H460
  GI50: 0.337 µM (active)
SR
  GI50: 0.231 µM (active)
SK-OV-3
  GI50: 1.84 µM (inactive)
T47D
  GI50: 1.66 µM (inactive)
SK-MEL-28
  GI50: > 66.1 µM (inactive)
HCT-116
  GI50: 0.532 µM (active)
HCT-15
  GI50: 0.229 µM

Source: ChEMBL document CHEMBL1201862, “PubChem BioAssay data set” (2004)
